In paper PMC6492180, “Cytome micronucleus assays with a metabolically competent human derived liver cell line (Huh6): A promising approach for routine testing of chemicals?” (Environmental and Molecular Mutagenesis, 2018):
Like-named read-outs stand apart in the source and are kept apart here. Marks after values point to notes of the source that are not given here.

Assays:
Human lymphocytes = settings: Human lymphocytes, cited from earlier work
HepaRG = settings: HepaRG; ref Josse et al., 2012; cited from earlier work
HepG2 = settings: HepG2, cited from earlier work
Huh6 cells = tested on: Huh6 cells
Procedure: All experiments were performed in duplicate.
3.8–4.0 × 10^5 cells per well were seeded into 6‐well plates with 3 mL of RPMI (4% FBS) for 12 hr, then dilutions of stock solutions of the diagnostic mutagens were added for different time periods (4, 24, and 48 hr). In each experimental series solvent controls were included. Subsequently, the cells were washed twice with 3.0 mL medium. […] Finally, the cells were washed and trypsinised. Afterwards the cells were washed twice with 8.0 mL RPMI and collected on slides by cytocentrifugation (600 rpm, 5 min). The slides were air dried, fixed, and stained with DiffQuick according to the instructions of the manufacturer. For each experimental point, two cultures were tested per dose. From each culture ≥1,000 BN cells were evaluated under 400‐fold magnification (Nikon Photophot‐FXA, Tokyo, Japan). At least 2,000 binucleated cells were analyzed per dose for the determination of the different nuclear anomalies (MN, NBuds, and NBs).
The experiments were performed as described in the previous chapter. The cells were exposed only to one dose of the different mutagens and were cultivated after the seeding in 6‐well plates which contained 4% or 10% FBS in RPMI, respectively.
Data were evaluated by generalized linear model with Poisson counts. Chi‐square tests for overdispersion were applied. […] P values ≤0.05 were considered statistically significant.
^150-60 000 cells were seeded in 6 well plates with 3 ml RPMI (4% FBS), subsequently different solutions of the test compound (dissolved in medium) were added. After treatment for different time periods, the cells was washed and processed as described in the Material and Method section. […] From each culture 1000 binoculated cells were evaluated. BN-MN – number of micronucleated cells; MN - total number of micronuclei; CBPI – cytokinesis-block proliferation index
^1The experiments were conducted essentially as described in the footnote of Table S1A-I. *p≤0.05

[1] = ref IARC (2018); cited from earlier work
[2] = 10% FBS, 24 hr treatment, 10 µg/ml

Q: What does the source list for `COS(C)(=O)=O` [MMS, Methyl methanesulfonate]?
A: Lowest effective concentration (LOEC) in micronucleus experiments (Human lymphocytes; ref Andreoli et al., 1999): 15.4 µg/mL; Lowest effective concentration (LOEC) in micronucleus experiments (Human lymphocytes; ref Fowler et al., 2014): 51.0 µg/mL; Lowest effective concentration (LOEC) in micronucleus experiments (HepaRG): 9.9 (Josse et al., 2012) μg/mL; MN formation with the longer exposure time, treatment for 1 or 7 days (in words) (HepaRG): no such effects; MN induction after 28 hr compared with 1 hr exposure (in words) (HepG2; ref Natarajan and Darroudi (1991)): less pronounced effect; Lowest effective concentration (LOEC) in micronucleus experiments (HepG2; ref Valentin‐Severin et al., 2003): 11.0 (Valentin‐Severin et al., 2003) μg/mL; MN effects after 24 hr (or longer) compared with 4 hr treatment (in words) (Huh6 cells; 4% FBS): similar; BN-MN (number of micronucleated cells) (Huh6 cells; 4% FBS, 4hrs, 6 µg/ml): 20.5 ± 3.5 ‰; Bridges (Huh6 cells; 4% FBS, 4hrs, 6 µg/ml): 0.5 ± 0.7 ‰; Buds (Huh6 cells; 4% FBS, 4hrs, 6 µg/ml): 20.5 ± 3.5 ‰; CBPI (Huh6 cells; 4% FBS, 4hrs, 6 µg/ml): 1.9 ± 0.1; MN (total number of micronuclei) (Huh6 cells; 4% FBS, 4hrs, 6 µg/ml): 21.0 ± 4.2 ‰; BN-MN (number of micronucleated cells) (Huh6 cells; 4% FBS, 4hrs, 10 µg/ml): 32.5 ± 3.5* ‰; Bridges (Huh6 cells; 4% FBS, 4hrs, 10 µg/ml): 3.5 ± 0.7 ‰; Buds (Huh6 cells; 4% FBS, 4hrs, 10 µg/ml): 37.0 ± 4.2* ‰; CBPI (Huh6 cells; 4% FBS, 4hrs, 10 µg/ml): 1.7 ± 0.1; MN (total number of micronuclei) (Huh6 cells; 4% FBS, 4hrs, 10 µg/ml): 39.5 ± 0.7* ‰; BN-MN (number of micronucleated cells) (Huh6 cells; 4% FBS, 4hrs, 40 µg/ml): 40.0 ± 7.1* ‰; Bridges (Huh6 cells; 4% FBS, 4hrs, 40 µg/ml): 3.5 ± 2.1 ‰; Buds (Huh6 cells; 4% FBS, 4hrs, 40 µg/ml): 42.0 ± 17.0* ‰; CBPI (Huh6 cells; 4% FBS, 4hrs, 40 µg/ml): 1.5 ± 0.1; MN (total number of micronuclei) (Huh6 cells; 4% FBS, 4hrs, 40 µg/ml): 50.5 ± 7.8 ‰; BN-MN (number of micronucleated cells) (Huh6 cells; 4% FBS, 24hrs, 0.4 µg/ml): 16.5 ± 0.7 ‰; Bridges (Huh6 cells; 4% FBS, 24hrs, 0.4 µg/ml): 0.5 ± 0.7 ‰; Buds (Huh6 cells; 4% FBS, 24hrs, 0.4 µg/ml): 9.5 ± 0.7 ‰; CBPI (Huh6 cells; 4% FBS, 24hrs, 0.4 µg/ml): 1.7 ± 0.0; MN (total number of micronuclei) (Huh6 cells; 4% FBS, 24hrs, 0.4 µg/ml): 16.5 ± 0.7 ‰; BN-MN (number of micronucleated cells) (Huh6 cells; 4% FBS, 24hrs, 2 µg/ml): 21.5 ± 2.1 ‰; Bridges (Huh6 cells; 4% FBS, 24hrs, 2 µg/ml): 3.0 ± 0.0 ‰; Buds (Huh6 cells; 4% FBS, 24hrs, 2 µg/ml): 17.5 ± 0.7 ‰; CBPI (Huh6 cells; 4% FBS, 24hrs, 2 µg/ml): 1.7 ± 0.0; MN (total number of micronuclei) (Huh6 cells; 4% FBS, 24hrs, 2 µg/ml): 23.5 ± 2.1 ‰; BN-MN (number of micronucleated cells) (Huh6 cells; 4% FBS, 24hrs, 10 µg/ml): 29.5 ± 2.1* ‰; Bridges (Huh6 cells; 4% FBS, 24hrs, 10 µg/ml): 8.0 ± 1.4 ‰; Buds (Huh6 cells; 4% FBS, 24hrs, 10 µg/ml): 27.0 ± 1.4* ‰; CBPI (Huh6 cells; 4% FBS, 24hrs, 10 µg/ml): 1.6 ± 0.0; MN (total number of micronuclei) (Huh6 cells; 4% FBS, 24hrs, 10 µg/ml): 31.0 ± 2.8* ‰; Change of MN rates after 48 hr treatment (in words) (Huh6 cells; 4% FBS, 48 hr): slight decrease; BN-MN (number of micronucleated cells) (Huh6 cells; 4% FBS, 48hrs, 0.4 µg/ml): 18.0 ± 1.4 ‰; Bridges (Huh6 cells; 4% FBS, 48hrs, 0.4 µg/ml): 0.5 ± 0.7 ‰; Buds (Huh6 cells; 4% FBS, 48hrs, 0.4 µg/ml): 19.0 ± 1.4 ‰; CBPI (Huh6 cells; 4% FBS, 48hrs, 0.4 µg/ml): 1.8 ± 0.0; MN (total number of micronuclei) (Huh6 cells; 4% FBS, 48hrs, 0.4 µg/ml): 20.0 ± 1.4 ‰; BN-MN (number of micronucleated cells) (Huh6 cells; 4% FBS, 48hrs, 2 µg/ml): 20.5 ± 0.7 ‰; Bridges (Huh6 cells; 4% FBS, 48hrs, 2 µg/ml): 2.5 ± 0.7 ‰; Buds (Huh6 cells; 4% FBS, 48hrs, 2 µg/ml): 19.5 ± 0.7 ‰; CBPI (Huh6 cells; 4% FBS, 48hrs, 2 µg/ml): 1.9 ± 0.0; MN (total number of micronuclei) (Huh6 cells; 4% FBS, 48hrs, 2 µg/ml): 23.5 ± 0.7 ‰; BN-MN (number of micronucleated cells) (Huh6 cells; 4% FBS, 48hrs, 10 µg/ml): 24.0 ± 2.8 ‰; Bridges (Huh6 cells; 4% FBS, 48hrs, 10 µg/ml): 0.5 ± 0.7 ‰; Buds (Huh6 cells; 4% FBS, 48hrs, 10 µg/ml): 27.0 ± 1.4 ‰; CBPI (Huh6 cells; 4% FBS, 48hrs, 10 µg/ml): 1.7 ± 0.0; MN (total number of micronuclei) (Huh6 cells; 4% FBS, 48hrs, 10 µg/ml): 25.5 ± 3.5 ‰; BN-MN (number of micronucleated cells) (Huh6 cells; [2]): 27.5 ± 2.1*; Bridges (Huh6 cells; [2]): 0.0 ± 0.0; Buds (Huh6 cells; [2]): 20.0 ± 2.8; CBPI (Huh6 cells; [2]): 1.8 ± 0.0; MN (total number of micronuclei) (Huh6 cells; [2]): 30.0 ± 1.4*; MN frequencies with 10% serum compared with 4% serum (in words) (Huh6 cells; 24 hr treatment): not increased; Lowest effective concentration (LOEC) in micronucleus experiments (Huh6 cells; Huh6): 10.0 µg/mL; IARC classification [1]: Methylation of DNA bases; causes gene mutations and CA; IARC: Group 2A
